Laboratory results taken from patent publication US8618133B2, “Aralkyl alcohol pyridine derivative compounds and the use thereof as medicaments for treating depression” (priority 2008, dated 2013).
Where two headings read alike, the source gives them in different places.

Assays:
[1] = biological target: T1, reuptake of 5-serotonin (5-HT) by brain synaptosomes (Rattus norvegicus, UniProt P31652); assay: [3H]5-HT reuptake by rat brain synaptosomes; assay type: biochemical; conditions: for inhibiting activity on the reuptake of 5-HT (in words): concentration 10 μmol/L, effectiveness equivalent to venlafaxine and DOV21947; for Inhibition of reuptake of 5-HT: rat prefrontal cortex synaptosomes, 0.1 mmol/L for control drug and drug to be detected
T1 construct: taking prefrontal cortex for the [^3H]5-HT and [^3H]NA reuptake experiment; from tissue; host or cells: rat brain prefrontal cortex synaptosomes

[2] = biological target: T2, reuptake of norepinephrine (NA) by brain synaptosomes (Rattus norvegicus, UniProt Q63380); assay: [3H]NA reuptake by rat brain synaptosomes; assay type: biochemical; conditions: for inhibiting activity on the reuptake of NA (in words): concentration 10 μmol/L, effectiveness equivalent to venlafaxine and DOV21947; for Inhibition of reuptake of NA / inhibition at 100 µM: rat prefrontal cortex synaptosomes, 0.1 mmol/L for control drug and drug to be detected
T2 construct: taking prefrontal cortex for the [^3H]5-HT and [^3H]NA reuptake experiment; from tissue; host or cells: rat brain prefrontal cortex synaptosomes

[3] = biological target: T3, reuptake of dopamine (DA) by brain synaptosomes (Rattus norvegicus, UniProt P23977); assay: [3H]DA reuptake by rat brain synaptosomes; assay type: biochemical; conditions: for inhibiting activity on the reuptake of DA (in words): concentration 10 μmol/L, effectiveness equivalent to venlafaxine and DOV21947; for Inhibition of reuptake of DA / inhibition at 100 µM: rat striatum synaptosomes, 0.1 mmol/L for control drug and drug to be detected
T3 construct: taking striatum for the [^3H]DA reuptake experiment; from tissue; host or cells: rat brain striatum synaptosomes

mice [4] = assay: forced swimming test of mice (immobility); assay type: in vivo; conditions: for Immobility time: mice, swimming test
mice [5] = assay: Acute toxicity, single dosage LD50 to mice; assay type: in vivo; conditions: Bliss statistics, preliminary screening
[6] = test system: Salmonella typhimurium histidine auxotroph mutant TA97, TA98, TA100 and TA102; assay type: cell-based
Text: Strains: Salmonella typhimurium histidine auxotroph mutant TA97, TA98, TA100 and TA102.
The experimental method: the method reported in Maron D M et al: (1983) Mutay Res. 113, 173-216 is used;
The experimental result: the experiment comprises two parts: −S9 and +S9.

T2 sequence (Q63380 1-617): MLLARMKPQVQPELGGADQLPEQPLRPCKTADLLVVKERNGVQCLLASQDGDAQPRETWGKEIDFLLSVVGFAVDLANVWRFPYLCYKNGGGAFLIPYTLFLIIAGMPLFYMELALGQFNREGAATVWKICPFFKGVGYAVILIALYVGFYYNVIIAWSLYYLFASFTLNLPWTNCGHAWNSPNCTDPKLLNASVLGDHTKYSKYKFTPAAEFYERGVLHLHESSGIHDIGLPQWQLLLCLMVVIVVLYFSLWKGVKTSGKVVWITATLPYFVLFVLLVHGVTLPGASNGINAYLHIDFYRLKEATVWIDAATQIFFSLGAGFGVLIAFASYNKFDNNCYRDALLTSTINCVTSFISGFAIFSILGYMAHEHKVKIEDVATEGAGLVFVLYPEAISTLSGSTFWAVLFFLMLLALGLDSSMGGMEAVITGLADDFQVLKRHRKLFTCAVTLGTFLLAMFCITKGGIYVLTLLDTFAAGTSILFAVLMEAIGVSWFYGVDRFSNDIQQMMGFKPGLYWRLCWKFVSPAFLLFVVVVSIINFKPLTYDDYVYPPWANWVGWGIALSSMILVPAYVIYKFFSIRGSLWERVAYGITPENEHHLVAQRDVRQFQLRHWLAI
T3 sequence (P23977 whole entry): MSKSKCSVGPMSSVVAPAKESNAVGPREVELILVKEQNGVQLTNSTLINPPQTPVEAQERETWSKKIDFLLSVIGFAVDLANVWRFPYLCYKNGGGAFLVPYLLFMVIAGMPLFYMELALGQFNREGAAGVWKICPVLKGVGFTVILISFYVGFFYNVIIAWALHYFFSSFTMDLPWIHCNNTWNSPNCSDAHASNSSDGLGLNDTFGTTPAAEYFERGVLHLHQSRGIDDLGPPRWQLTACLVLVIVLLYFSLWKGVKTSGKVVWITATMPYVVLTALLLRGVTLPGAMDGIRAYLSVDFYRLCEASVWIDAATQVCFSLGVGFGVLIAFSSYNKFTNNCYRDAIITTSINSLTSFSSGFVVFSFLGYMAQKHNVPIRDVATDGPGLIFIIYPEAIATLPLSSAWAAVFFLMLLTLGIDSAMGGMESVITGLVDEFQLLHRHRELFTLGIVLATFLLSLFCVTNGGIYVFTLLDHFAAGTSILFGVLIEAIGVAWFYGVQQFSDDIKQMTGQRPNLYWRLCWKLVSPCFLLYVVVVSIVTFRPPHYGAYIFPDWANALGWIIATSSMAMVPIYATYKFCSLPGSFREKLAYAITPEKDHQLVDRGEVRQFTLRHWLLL
T1 sequence (P31652 whole entry): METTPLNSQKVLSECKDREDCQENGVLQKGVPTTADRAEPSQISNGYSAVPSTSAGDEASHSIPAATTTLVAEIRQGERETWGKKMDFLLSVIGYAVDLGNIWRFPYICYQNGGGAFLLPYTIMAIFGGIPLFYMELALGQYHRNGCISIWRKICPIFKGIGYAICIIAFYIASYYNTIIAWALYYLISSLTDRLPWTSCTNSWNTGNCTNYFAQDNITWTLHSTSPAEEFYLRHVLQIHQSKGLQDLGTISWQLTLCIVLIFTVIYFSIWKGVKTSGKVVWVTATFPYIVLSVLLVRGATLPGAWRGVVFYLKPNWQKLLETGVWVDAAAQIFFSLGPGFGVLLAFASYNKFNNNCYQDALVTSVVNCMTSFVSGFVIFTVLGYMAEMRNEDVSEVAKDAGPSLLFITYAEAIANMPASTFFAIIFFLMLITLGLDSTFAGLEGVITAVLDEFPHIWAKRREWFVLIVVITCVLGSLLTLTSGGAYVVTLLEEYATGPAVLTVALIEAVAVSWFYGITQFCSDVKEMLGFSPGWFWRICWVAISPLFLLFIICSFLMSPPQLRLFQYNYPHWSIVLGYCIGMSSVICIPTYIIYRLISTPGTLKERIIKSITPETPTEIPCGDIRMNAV

SMILES	inhibiting activity on the reuptake of 5-HT (in words) [1]	Inhibition of reuptake of 5-HT [1]	inhibiting activity on the reuptake of NA (in words) [2]	Inhibition of reuptake of NA [2]	inhibiting activity on the reuptake of DA (in words) [3]	Inhibition of reuptake of DA [3]	further results
COc1ccc2cc([C@@H](O)[C@H](C)N3CCC(Cc4ccccc4)CC3)ccc2c1Cl [Compound V-2, Erythro-4-benzyl-N-[1-methyl-2-hydroxy-2-(5-chloro-6-methoxynaphthalene-2-yl)]ethylpiperidine]	stronger inhibiting activity	105.6 ± 0.9	stronger inhibiting activity	65.3 ± 6.7	stronger inhibiting activity	93.1 ± 2.0	–
COc1ccc2cc([C@@H](O)[C@H](C)N3CCC(O)(Cc4ccccc4)CC3)ccc2c1Cl [Compound V-14, Erythro-4-benzyl-4-hydroxy-N-[1-methyl-2-hydroxy-2-(5-chloro-6-methoxynaphthalene-2-yl)]ethylpiperidine]	stronger inhibiting activity	94.9 ± 1.2	stronger inhibiting activity	93.0 ± 20.8	stronger inhibiting activity	91.0 ± 0.9	in vivo anti-depression activity (in words) (mice [4]; forced swimming test of mice, effect similar to venlafaxine): strong in vivo anti-depression activity; Immobility time (mice [4]; dosage 6.9 mg/kg): 52.8 ± 32.0 s; Immobility time (mice [4]; dosage 13.8 mg/kg): 82.1 ± 62.0 s; Immobility time (mice [4]; dosage 27.6 mg/kg): 74.9 ± 37.8 s; LD50 (mice [5]): 1150 mg/kg; bacteriostatic effect ([6]; 5000 μg/dish, TA97, S9 added testing system): have bacteriostatic effect; bacteriostatic effect ([6]; 5000 μg/dish, non-S9 testing system): have bacteriostatic effect; Ames test, reverse mutation ([6]; all tested dosages, with or without S9): negative; bacteriostatic effect ([6]; other dosages, all strains): do nut have a bacteriostatic effect
COc1ccc2cc(C(O)CCN3CCC(=Cc4ccccc4)CC3)ccc2c1Cl (centres unmarked) [Compound V-32, 4-benzyl-methylene-N-[3-hydroxy-3-(5-chloro-6-methoxynaphthalene-2-yl)]propylpiperidine]	stronger inhibiting activity	104.4 ± 2.0	stronger inhibiting activity	36.6 ± 19.1	stronger inhibiting activity	92.4 ± 7.6	–
COc1ccc2cc(C(O)C(C)N3CCC(=Cc4ccc(F)cc4)CC3)ccc2c1Cl (centres unmarked) [Compound V-34, 4-(4-fluorobenzyl)-methylene-N-[1-methyl-2-hydroxy-2-(5-chloro-6-methoxynaphthalene-2-yl)]ethyl-piperidine]	–	106.3 ± 2.3	–	18.8 ± 13.4	–	99.1 ± 4.3	–
COc1ccc2cc(C(O)C(C)N3CCC(=Cc4ccccc4)CC3)ccc2c1Cl (centres unmarked) [Compound V-38, 4-benzyl-methylene-N-[1-methyl-2-hydroxy-2-(5-chloro-6-methoxynaphthalene-2-yl)]ethyl-piperidine]	stronger inhibiting activity	107.0 ± 0.5	stronger inhibiting activity	87.4 ± 5.5	stronger inhibiting activity	99.6 ± 2.9	–
COc1ccc2cc([C@@H](O)[C@H](C)N3CC=C(Cc4ccccc4)CC3)ccc2c1Cl [Compound V-40, Erythro-4-benzyl-N-[1-methyl-2-hydroxy-2-(5-chloro-6-methoxynaphthalene-2-yl)]ethyl-1,2,3,6-tetrahydropyridine]	–	99.5 ± 1.6	–	62.6 ± 15.3	–	50.7 ± 21.8	–
COc1ccc2cc([C@@H](O)[C@H](C)N3CCC(OCc4ccccc4)CC3)ccc2c1Cl [Compound V-50, Erythro-4-benzyloxy-N-[1-methyl-2-hydroxy-2-(5-chloro-6-methoxynaphthalene-2-yl)]ethylpiperidine]	–	91.8 ± 1.6	–	41.8 ± 7.3	–	23.1 ± 16.8	–
Clc1ccc([C@]23CNC[C@H]2C3)cc1Cl [DOV 21947, reference compound]	–	–	–	–	–	–	inhibition at 100 µM ([1]; read-out: Inhibition of reuptake of 5-HT): 109 ± 3.8%; inhibition at 100 µM [2]: 61.9 ± 6%; inhibition at 100 µM [3]: 104 ± 4.2%
COc1ccc(C(CN(C)C)C2(O)CCCCC2)cc1 (centres unmarked) [venlafaxine, reference compound]	–	–	–	–	–	–	inhibition at 100 µM [2]: 46.4 ± 4.6%; inhibition at 100 µM [3]: 48.6 ± 4.1%; Immobility time (mice [4]; dosage 4.56 mg/kg): 57.1 ± 37.8 s; Immobility time (mice [4]; dosage 9.12 mg/kg): 77.4 ± 47.2 s; Immobility time (mice [4]; dosage 18.24 mg/kg): 80.8 ± 46.8 s
